Measured values: PubChem BioAssay (NCI)
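Results reflect a 48-hour exposure of cells in 96-well plates to compound at five concentrations. Here, GI50 denotes the concentration required for 50% inhibition of growth. TGI: total growth inhibition.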 Where a SMILES comes first, the peptide text is derived from it. The star is where a group is joined. Fmoc = O=C(OCC1c2ccccc2-c2ccccc21)*; ONb = O=[N+]([O-])c1ccc(CO*)cc1; Boc = CC(C)(C)OC(=O)*

Legend:
Assay in all cases: DTP human tumour cell line panel, 48 h
COLO 205 colon = tested on: COLO 205 colon
HOP-62 NSCLC = tested on: HOP-62 NSCLC
HS 578T breast = tested on: HS 578T breast
LOX IMVI melanoma = tested on: LOX IMVI melanoma
OVCAR-4 ovarian = tested on: OVCAR-4 ovarian
SF-295 CNS = tested on: SF-295 CNS
SF-539 CNS = tested on: SF-539 CNS
SK-MEL-2 melanoma = tested on: SK-MEL-2 melanoma
T-47D breast = tested on: T-47D breast
UACC-62 melanoma = tested on: UACC-62 melanoma

Row | SMILES | TGI (COLO 205 colon) [µM] | TGI (HOP-62 NSCLC) [µM] | TGI (HS 578T breast) [µM] | TGI (LOX IMVI melanoma) [µM] | TGI (OVCAR-4 ovarian) [µM] | TGI (SF-295 CNS) [µM] | TGI (SF-539 CNS) [µM] | TGI (SK-MEL-2 melanoma) [µM] | TGI (T-47D breast) [µM] | TGI (UACC-62 melanoma) [µM] | GI50 (COLO 205 colon) [µM] | GI50 (HOP-62 NSCLC) [µM] | GI50 (HS 578T breast) [µM] | GI50 (LOX IMVI melanoma) [µM] | GI50 (OVCAR-4 ovarian) [µM] | GI50 (SF-295 CNS) [µM] | GI50 (T-47D breast) [µM] | GI50 (UACC-62 melanoma) [µM]
1 | CC(C)(C)OC(=O)NCCCCC(NC(=O)OCC1c2ccccc2-c2ccccc21)C(=O)N1CCCC1C(=O)NCC(N)=O (stereo not drawn) (Fmoc-Lys(Boc)-Pro-Gly-NH2; configuration not given here) | 99.2 | > 100 | > 100 | 40 | 44.6 | > 100 | > 100 | > 100 | > 100 | > 100 | – | – | – | – | – | – | – | –
2 | O=C1/C(=C/c2cccc(Br)c2)CSC/C1=C\c1cccc(Br)c1 | 8.53 | 6.74 | – | 4.82 | 13.1 | 5.14 | 13.6 | 12 | 21.1 | 3.14 | – | – | – | – | – | – | – | –
3 | Cc1cc(C)c2c(n1)S(=O)(=O)N(CCCN1CCN(c3cccc(C(F)(F)F)c3)CC1)c1c-2nn(C)c1C | > 100 | > 100 | > 100 | > 100 | > 100 | > 100 | > 100 | > 100 | > 100 | > 100 | – | – | – | – | – | – | – | –
4 | CN1C(=O)[C@@H]2[C@@H]3c4ccccc4N(S(=O)(=O)C(F)(F)F)[C@@H]3c3[nH]c4ccccc4c3[C@@H]2C1=O | > 100 | > 100 | > 100 | > 100 | > 100 | > 100 | > 100 | > 100 | – | > 100 | – | – | – | – | – | – | – | –
5 | CC(C)C1=CCC2C(=C1)CCC1C(C)(C(=O)O)CCCC21C (stereo not drawn) (tested in a mixture with another compound) | > 100 | > 100 | > 100 | > 100 | > 100 | > 100 | > 100 | > 100 | > 100 | > 100 | – | – | – | – | – | – | – | –
6 | CCCCN1C(=O)c2c(-c3sccc3N)sc(-c3sccc3N)c2C1=O | > 46.7 | 41.5 | 83.6 | > 100 | 45.3 | 58 | 32.8 | > 100 | > 100 | > 64.6 | – | – | – | – | – | – | – | –
7 | O=S(=O)(O)ON=C1c2ccccc2-c2ccccc21 | > 100 | > 100 | > 100 | > 100 | > 100 | > 100 | > 100 | > 100 | > 100 | > 100 | – | – | – | – | – | – | – | –
8 | O=C(/C=C/c1ccc(O)c(O)c1)c1cc(O)cc(O)c1 | 31.1 | 36.6 | 70.5 | 18.9 | 22.2 | 40.1 | 20.7 | 28.2 | 29.3 | 26.1 | – | – | – | – | – | – | – | –
9 | Cc1c2cnccc2c(C)c2c1c1ccccc1n2CCCCCCNCc1ccccc1 | 3.07 | 7.14 | – | 3.81 | 1.25 | 3.47 | 3.61 | 4.24 | – | 4.16 | – | – | – | – | – | – | – | –
10 | CCOC(=O)c1c(N2CCCC2)[nH]c(=O)c(C(c2ccco2)c2c(O)c(C(=O)OCC)c(N3CCCC3)[nH]c2=O)c1O | > 100 | > 100 | > 100 | > 100 | > 100 | > 100 | > 100 | > 100 | > 100 | > 100 | – | – | – | – | – | – | – | –
11 | CCCCNC(=S)Nc1nc(C(=O)NNC(=S)NC2CCCCC2)cs1 | > 100 | > 100 | – | > 100 | > 100 | > 100 | > 100 | > 100 | > 100 | > 100 | – | – | – | – | – | – | – | –
12 | CO/N=C(\C)COc1ccc2c(=O)c(-c3ccccc3)coc2c1 | 32.4 | 46.6 | > 100 | > 100 | > 100 | 65.2 | – | – | 48.6 | 93.6 | 11.2 | 17.8 | 63.1 | 42.5 | 40.4 | 31.9 | 17.3 | 26.3
13 | CCc1ccc2nc(-c3ccc(O)cc3)sc2c1 | 28.6 | – | – | 33.6 | – | 30.6 | 27.8 | 31.9 | – | 25.1 | – | – | – | – | – | – | – | –
14 | Cc1cc(NC[C@H](O)[C@H](O)[C@H](O)CO)c(Sc2cc(=O)[nH]c(=O)[nH]2)cc1C | > 62.5 | > 62.5 | > 62.5 | > 62.5 | > 62.5 | > 62.5 | – | > 62.5 | > 62.5 | > 62.5 | – | – | – | – | – | – | – | –
15 | Cn1c2ccccc2c2c(=O)[nH]c(=O)[nH]c21 | > 100 | > 100 | > 100 | > 100 | – | > 100 | > 100 | > 100 | > 100 | > 100 | – | – | – | – | – | – | – | –
16 | CCOC(=O)Cc1nc2sc(S(N)(=O)=O)nn2c1Br | > 100 | > 100 | > 100 | 44.3 | – | > 100 | – | > 100 | 70.8 | 36.1 | – | – | – | – | – | – | – | –
17 | CC(C)CC(NC(=O)OC(C)(C)C)C(=O)NC(CCC(=O)OCc1ccc([N+](=O)[O-])cc1)C(=O)OCc1ccc([N+](=O)[O-])cc1 (stereo not drawn) (Boc-Leu-Glu(ONb)-ONb; configuration not given here) | > 100 | > 100 | – | 63.8 | > 100 | > 100 | 37.2 | 78.3 | > 100 | 99.3 | – | – | – | – | – | – | – | –
18 | CC(=C(C(N)=O)C(N)=O)C1C=C(c2cccs2)CC(c2ccc(Cl)cc2)=C1O (stereo not drawn) | > 100 | > 100 | > 100 | 40.4 | 78.8 | > 100 | – | > 100 | > 100 | > 100 | – | – | – | – | – | – | – | –
19 | O=c1oc2cc(O)ccc2c(O)c1C(c1cccnc1)c1c(O)c2ccc(O)cc2oc1=O | > 100 | > 100 | > 100 | > 100 | – | > 100 | > 100 | > 100 | > 100 | > 100 | – | – | – | – | – | – | – | –
20 | CCCCCCCCCCCCOP(=O)(O)OCC(N)C(=O)O (stereo not drawn) | > 100 | 31.6 | 33.3 | 64 | > 100 | 41.7 | 51.6 | 51.8 | > 100 | – | – | – | – | – | – | – | – | –
21 | CC(=O)O[C@@H]1C2=C(C)C=C(O2)[C@H]2O[C@]2(C)C[C@H]2C=C(C(=O)O2)[C@H](OC(C)=O)CC1[C@@]1(C)CO1 (stereo partly drawn) | 27.1 | 57.9 | – | 37.6 | > 100 | > 100 | 83.4 | > 100 | 39.7 | 56.3 | – | – | – | – | – | – | – | –
